According to article PMC9555310, “Novel inhibitors and activity-based probes targeting serine proteases” (Frontiers in Chemistry, 2022):

How the values were obtained:
trypsin = target: T1, trypsin (Sus scrofa, UniProt P00761); assay: Activity-based profiling of trypsin (SDS-PAGE, streptavidin-HRP western blot); format: binding, porcine; details: 50 μM ABP, 30 min, 37°C; band of apparent molecular weight 23 kDa
T1 construct: purchased Sigma-Aldrich; host or cells: porcine pancreas
Description: (§1) Samples of recombinant protease (trypsin, plasmin, thrombin, chymotrypsin, or HNE, as indicated in the relevant figure legends) were treated with each of the newly synthesized compounds at a concentration of 50 μM, for 30 min, at 37°C. A control sample (no ABP) was prepared by treating the recombinant protease with solvent vehicle (DMF) only, used to prepare the stock solution of each ABP. Samples were also pre-treated (±90°C for 30 min) before being incubated with each putative ABP. With trypsin and thrombin, further samples were prepared where Z-Arg^P-(OPh)2 or NAP559, respectively, was added 30 min prior to the addition of the ABP under examination. All treated samples were then denatured with SDS containing reducing treatment buffer (10 min at 95°C), followed by resolution by SDS-PAGE and subjected to Western blotting. Resolved proteins were then transferred onto the nitrocellulose membrane and labeled with streptavidin-HRP. […]
(§2) Following transfer, the extra protein binding sites on the membrane were blocked by addition of 3% (w/v) BSA in TBST (20 mM Tris, 137 mM NaCl, 1% (v/v) Tween 20, pH 7.6) and agitated gently at room temperature for 30 minutes. The biotin-labelled proteases were then detected by addition of Streptavidin-HRP (Vector Laboratories) in 3% (w/v) BSA in TBST at a concentration of 1:20000, for 1 hour at room temperature. […]

plasmin = target: T2, plasmin (Homo sapiens, UniProt P00747); assay: Activity-based profiling of plasmin (SDS-PAGE, streptavidin-HRP western blot); format: binding; details: 50 μM, 30 min, 37°C
T2 construct: purchased Sigma-Aldrich (supplement); R&D Systems; host or cells: human plasma
Description: Samples of recombinant protease (trypsin, plasmin, thrombin, chymotrypsin, or HNE, as indicated in the relevant figure legends) were treated with each of the newly synthesized compounds at a concentration of 50 μM, for 30 min, at 37°C. A control sample (no ABP) was prepared by treating the recombinant protease with solvent vehicle (DMF) only, used to prepare the stock solution of each ABP. Samples were also pre-treated (±90°C for 30 min) before being incubated with each putative ABP. With trypsin and thrombin, further samples were prepared where Z-Arg^P-(OPh)2 or NAP559, respectively, was added 30 min prior to the addition of the ABP under examination. All treated samples were then denatured with SDS containing reducing treatment buffer (10 min at 95°C), followed by resolution by SDS-PAGE and subjected to Western blotting. Resolved proteins were then transferred onto the nitrocellulose membrane and labeled with streptavidin-HRP. The ABP–protease complex was then visualized following treatment with Luminata Forte HRP substrate.
FIGURE 8 Activity Based Profiling of Trypsin-like serine proteases. (A) trypsin was treated (±) with NAP830, for 30 min, at 37°C (± pretreatment with Z-Arg^P-(OPh)2). (B) thrombin (1 […]) was pre-treated with various concentrations of NAP559 (30 min, at 37°C) followed by treatment (±) with NAP858 for 30 min, at 37°C. (C) Plasmin was treated in turn with QUBTL1, NAP962 and NAP830, (± pre-heat inactivation at 95°C, for 10 min) for 30 min, at 37°C. […]
as §2

NE in CF Sol samples = target: T3, NE in CF Sol samples (Homo sapiens, UniProt P08246); assay: Fluorogenic substrate assay of elastase-like activity in CF Sol; format: biochemical; details: 50 μM; CF Sol sample 26w at 2.5% (v/v); PBS pH 7.4, 37°C; 60 min
T3 construct: from tissue; host or cells: Cystic Fibrosis (CF) Sol samples 26w and 41w from patients
T3 sequence (P08246 30-267): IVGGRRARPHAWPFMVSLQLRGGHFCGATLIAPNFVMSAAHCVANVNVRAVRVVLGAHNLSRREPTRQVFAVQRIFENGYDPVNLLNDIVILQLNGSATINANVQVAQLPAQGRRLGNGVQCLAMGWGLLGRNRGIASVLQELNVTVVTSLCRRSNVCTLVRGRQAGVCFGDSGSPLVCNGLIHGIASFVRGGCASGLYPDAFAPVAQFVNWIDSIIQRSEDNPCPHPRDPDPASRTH
Description: FIGURE 7 Activity Based Profiling of serine proteases by peptide N-Alkyl glycine carbamates. (A,B) record the results for the incubation of NE with NAP800 and chymotrypsin with NAP849. NE and Chymotrypsin were treated (±) with NAP800 and NAP849, respectively (± pre-heat inactivation at 95°C, for 10 min), for 30 min, at 37°C. (C) Determination of NE levels in CF samples using fluorogenic substrate assay. NE assays were carried out in PBS, pH 7.4, at 37°C. CF Sol (sample 26w) was used at a final concentration of 2.5% (v/v), and the level of NE contained therein was measured using Succinyl-Ala-Ala-Pro-Val-NHMec (50 μM), in the absence (-- o --) and presence (-- o --) of NAP800 (50 μM). (D) Activity based profiling of CF Sol using NAP800. CF Sol samples 26w and 41w were treated (+) with 50 μM NAP800 (+ pre-heat inactivation at 95°C, for 10 min), for 30 min, at 37°C.
Initially, as a quick screen, a fluorogenic enzyme assay was performed on CF Sol samples, using the elastase fluorogenic substrate MeO-Succinyl-Ala-Ala-Pro-Val-NHMec, the results of one such experiment (performed on sample 26w) is recorded in Figure 7C.

NE = target: T4, NE (Homo sapiens, UniProt P08246); assay: Activity-based profiling of NE (SDS-PAGE, streptavidin-HRP western blot); format: binding; details: 50 μM ABP, 30 min, 37°C; labelling extinguished by heat inactivation of NE
T4 construct: purchased Calbiochem
T4 sequence (P08246 30-267): T3 sequence (P08246 30-267)
Description: as §1, with “examination.” for “examination. All treated samples were then denatured with SDS containing reducing treatment buffer (10 min at 95°C), followed by resolution by SDS-PAGE and subjected to Western blotting. Resolved proteins were then transferred onto the nitrocellulose membrane and labeled with streptavidin-HRP.”
(§3) FIGURE 7 Activity Based Profiling of serine proteases by peptide N-Alkyl glycine carbamates. […] CF Sol (sample 26w) was used at a final concentration of 2.5% (v/v), and the level of NE contained therein was measured using Succinyl-Ala-Ala-Pro-Val-NHMec (50 μM), in the absence (-- o --) and presence (-- o --) of NAP800 (50 μM). […]
as §2

chymotrypsin = target: T5, chymotrypsin (Bos taurus, UniProt P00766); assay: Activity-based profiling of chymotrypsin (SDS-PAGE, streptavidin-HRP western blot); format: binding, bovine; details: 50 μM ABP, 30 min, 37°C; blocked by heat inactivation
T5 construct: purchased Sigma-Aldrich (supplement); Calbiochem; host or cells: bovine pancreas
Description: as §1, with “examination.” for “examination. All treated samples were then denatured with SDS containing reducing treatment buffer (10 min at 95°C), followed by resolution by SDS-PAGE and subjected to Western blotting. Resolved proteins were then transferred onto the nitrocellulose membrane and labeled with streptavidin-HRP.”
as §3, §2

T2 sequence (P00747 581-810 limits assumed): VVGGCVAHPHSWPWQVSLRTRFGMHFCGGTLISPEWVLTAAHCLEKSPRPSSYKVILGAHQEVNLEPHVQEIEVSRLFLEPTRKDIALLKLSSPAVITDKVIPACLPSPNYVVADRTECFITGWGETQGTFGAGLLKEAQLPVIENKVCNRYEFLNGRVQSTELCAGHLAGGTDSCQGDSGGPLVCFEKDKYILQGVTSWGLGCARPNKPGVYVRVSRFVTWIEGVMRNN
T2 sequence (P00747 97-580 partner limits assumed): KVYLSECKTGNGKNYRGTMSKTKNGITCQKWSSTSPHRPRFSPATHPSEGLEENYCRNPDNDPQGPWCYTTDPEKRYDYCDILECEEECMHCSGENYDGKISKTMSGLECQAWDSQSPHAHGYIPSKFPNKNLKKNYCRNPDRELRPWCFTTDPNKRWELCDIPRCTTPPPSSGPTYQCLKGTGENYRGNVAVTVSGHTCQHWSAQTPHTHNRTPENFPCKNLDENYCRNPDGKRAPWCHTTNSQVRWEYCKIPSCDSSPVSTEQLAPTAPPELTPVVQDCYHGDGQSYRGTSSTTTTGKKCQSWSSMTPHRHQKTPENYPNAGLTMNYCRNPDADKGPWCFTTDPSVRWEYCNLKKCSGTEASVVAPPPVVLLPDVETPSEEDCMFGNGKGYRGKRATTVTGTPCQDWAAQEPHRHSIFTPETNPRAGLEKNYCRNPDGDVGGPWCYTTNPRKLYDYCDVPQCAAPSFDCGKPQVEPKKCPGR
T1 sequence (P00761 9-231): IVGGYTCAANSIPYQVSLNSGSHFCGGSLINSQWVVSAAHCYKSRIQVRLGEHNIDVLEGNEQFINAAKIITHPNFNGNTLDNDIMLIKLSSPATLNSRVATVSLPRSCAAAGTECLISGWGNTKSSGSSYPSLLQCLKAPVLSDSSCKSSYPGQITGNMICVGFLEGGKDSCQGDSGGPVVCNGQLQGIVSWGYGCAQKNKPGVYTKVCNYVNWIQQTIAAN

NCCCCN(CC(=O)NCC(=O)NCC(=O)NCCCOCCOCCOCCCNC(=O)CCCCC1SCC2NC(=O)NC21)C(=O)ON1C(=O)CCC1=O (stereo not drawn) [NAP830, Succinimidoyl-CO-NLys-Gly-Gly-PEG-Biotin]
labelling of trypsin by ABP (western blot) (trypsin): enabled the active site labeling and detection of the protease | labelling of plasmin by ABP (western blot) (plasmin): A band corresponding to the light (catalytic) chain of plasmin (26 kDa) was visible

CC(C)N(CC(=O)NCC(=O)NCC(=O)NCCCOCCOCCOCCCNC(=O)CCCCC1SCC2NC(=O)NC21)C(=O)ON1C(=O)CCC1=O (stereo not drawn) [NAP800, Succinimidoyl-CO-NVal-Gly-Gly-PEG-Biotin]
blockade of MeO-Succinyl-Ala-Ala-Pro-Val-NHMec cleavage in CF Sol (NE in CF Sol samples): progressive and ultimately complete blockade of substrate cleavage | labelling of NE by ABP (western blot) (NE): labels a protein band corresponding to the expected molecular size/mass of NE

CC(C)N(CC(=O)NCCCOCCOCCOCCCNC(=O)CCCCC1SCC2NC(=O)NC21)C(=O)CN(Cc1ccccc1)C(=O)CN(CCCCN)C(=O)ON1C(=O)CCC1=O (stereo not drawn) [NAP962, Succinimidoyl-CO-NLys-NPhe-NVal-PEG-Biotin]
labelling of plasmin by ABP (western blot) (plasmin): A band corresponding to the light (catalytic) chain of plasmin (26 kDa) was visible

O=C(CCCCC1SCC2NC(=O)NC21)NCCCOCCOCCOCCCNC(=O)CNC(=O)CNC(=O)CN(Cc1ccccc1)C(=O)ON1C(=O)CCC1=O (stereo not drawn) [NAP849, Succinimidoyl-CO-NPhe-Gly-Gly-PEG-Biotin]
labelling of chymotrypsin by ABP (western blot) (chymotrypsin): detection of a strong band corresponding to the molecular weight of chymotrypsin
